Data: PubChem BioAssay AID1963852 (Molecular Pharmacology Branch, DTP, NCI, 2024)

Tested on: 282377-053-R-J1-PDC complex spheroid viability
Assay: Anticancer human tumor 282377-053-R-J1-PDC patient-derived colon adenocarcinoma cell line growth inhibition [POLQ]
Settings: for IC50: curve of first compound; for viability, T/C: stronger effect = lower value; active = viability on the fitted dose curve at most 10% of control; inactive = the rest
Outline: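 Complex spheroid viability model combining PDC tumour cells with endothelial (HUVEC) and MSC stromal cells. Novobiocin, ART-558 or RP6685 were tested singly and in combination with standard and investigational anticancer drugs. Each was titrated in half-log steps from near clinical Cmax, or from 10 microM where Cmax was unknown.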
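Also: spheroids exposed to compounds for seven days.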
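For viability, T/C in this document: 100% = DMSO vehicle control viability.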

CC1COCCN1c1cc(C2(S(C)(=N)=O)CC2)nc(-c2ccnc3[nH]ccc23)n1 (configuration not stated) + Nc1ccc(C#CCN(C(=O)Cc2ncc(C(F)(F)F)cc2C(F)(F)F)c2ccc(F)cc2)nn1
inactive: viability, T/C (second compound 0.0316 µM, first compound 0.0316 µM) 117% | viability, T/C (second compound 0.0316 µM, first compound 0.1 µM) 96.5% | viability, T/C (second compound 0.0316 µM, first compound 0.316 µM) 90.7% | viability, T/C (second compound 0.0316 µM, first compound 1 µM) 86.2% | viability, T/C (second compound 0.0316 µM, first compound 3.16 µM) 73.6% | viability, T/C (second compound 0.0316 µM, first compound 10 µM) 54.6% | viability, T/C (second compound 0.1 µM, first compound 0.0316 µM) 99.2% | viability, T/C (second compound 0.1 µM, first compound 0.1 µM) 106% | viability, T/C (second compound 0.1 µM, first compound 0.316 µM) 93.1% | viability, T/C (second compound 0.1 µM, first compound 1 µM) 79.8% | viability, T/C (second compound 0.1 µM, first compound 3.16 µM) 78.7% | viability, T/C (second compound 0.1 µM, first compound 10 µM) 58.5% | viability, T/C (second compound 0.316 µM, first compound 0.0316 µM) 116% | viability, T/C (second compound 0.316 µM, first compound 0.1 µM) 101% | viability, T/C (second compound 0.316 µM, first compound 0.316 µM) 93.1% | viability, T/C (second compound 0.316 µM, first compound 1 µM) 81.5% | viability, T/C (second compound 0.316 µM, first compound 3.16 µM) 80% | viability, T/C (second compound 0.316 µM, first compound 10 µM) 59.7% | viability, T/C (second compound 1 µM, first compound 0.0316 µM) 112% | viability, T/C (second compound 1 µM, first compound 0.1 µM) 90.9% | viability, T/C (second compound 1 µM, first compound 0.316 µM) 84.7% | viability, T/C (second compound 1 µM, first compound 1 µM) 91.7% | viability, T/C (second compound 1 µM, first compound 3.16 µM) 75.1% | viability, T/C (second compound 1 µM, first compound 10 µM) 70.3% | viability, T/C (second compound 3.16 µM, first compound 0.0316 µM) 116% | viability, T/C (second compound 3.16 µM, first compound 0.1 µM) 101% | viability, T/C (second compound 3.16 µM, first compound 0.316 µM) 91.4% | viability, T/C (second compound 3.16 µM, first compound 1 µM) 92.4% | viability, T/C (second compound 3.16 µM, first compound 3.16 µM) 76.1% | viability, T/C (second compound 3.16 µM, first compound 10 µM) 57.5% | viability, T/C (second compound 10 µM, first compound 0.0316 µM) 96.5% | viability, T/C (second compound 10 µM, first compound 0.1 µM) 119% | viability, T/C (second compound 10 µM, first compound 0.316 µM) 106% | viability, T/C (second compound 10 µM, first compound 1 µM) 95% | viability, T/C (second compound 10 µM, first compound 3.16 µM) 93% | viability, T/C (second compound 10 µM, first compound 10 µM) 72.4%
> 10 µM: IC50 (second compound 0.0316 µM) | IC50 (second compound 0.1 µM) | IC50 (second compound 0.316 µM) | IC50 (second compound 1 µM) | IC50 (second compound 3.16 µM) | IC50 (second compound 10 µM)
